Reference: PMC6118079 (Iranian Journal of Basic Medical Sciences, 2018)

Tested on: krait snake venom acetylcholinesterase (AChE)
Assay type: biochemical, Bungarus sindanus
Conditions: no extract (control); 0.5-1 mM substrate, 50 mM phosphate pH 7.4, 37 °C; crude venom as enzyme source

**Q.** How did the Km turn out when `CC(=O)SCC[N+](C)(C)C` [acetylthiocholine] was run?
**A.** 160 µM
